# From patent US10766882B2, “1,2-naphthoquinone based derivative and method of preparing the same” (YUNGJIN PHARM. CO., LTD., priority 2013, dated 2020)
# Tests used:
# C57BL/6J Lep ob/ob mice = experiment: Weight loss effects in obese mice (ob/ob); format: in vivo; details: vs 0.1% SLS controls
# Procedure: 10 week-old C57BL/6J Lep ob/ob mice having genetic obesity characteristics available from ORIENTBIO were prepared. Two mice were raised in each polycarbonate breeding cage (200 W×260 L×130H (mm), Three-shine) in which temperature was 20 to 24° C., relative humidity was 35 to 65%, illuminance was 150 to 300 lux, night and day were 12 hours, and exhaust was performed at 10 to 15 air changes per hour. As a feed, low fat diet (11.9 kcal % fat, 5053, Labdiet) manufactured by ORIENTBIO was used. The feed was contained in a feeder and free intake was allowed. As drinking water, water, which was contained in a 250 mL polycarbonate based bottle, purified through a filter and a sterilizer was used and free intake was allowed.
# The compound according to Example 1 synthesized in the present invention was orally administered to three C57BL/6J Lep ob/ob mice in amounts of 40 mg/kg, 80 mg/kg, and 120 mg/kg, respectively, once every day for two weeks. For administration, a disposable syringe fitted with a sonde for oral administration was used and 10 ml/kg of the compound was orally administered into the stomach. As controls, three C57BL/6J Lep ob/ob mice were administered 0.1% sodium lauryl sulfate (SLS) in an amount of 120 mg/kg in the same manner as described above. After administration, a time-dependent weight increase ratio, weight change, and intake amount were measured and results are illustrated in FIG. 1 below.
# Weights of the experimental animals were measured immediately before administration of a test material and seven times a week from an administration initiation day to a test termination day. Increased total weights were calculated by subtracting weights measured on an experiment initiation day from weights measured one day before an experiment termination day. Food intake amounts were calculated by measuring feed supply amounts and remaining amounts twice a week from an initiation day of test material administration to a test termination day for each individual. […]
# (§1) Experiments were performed under the same conditions as in Experimental Example 3-1 except that 15 week-old C57BL/6J Lep ob/ob mice having genetic obesity characteristics available from ORIENTBIO were prepared, the compounds according to Examples 5 and 6 were administered to three C57BL/6J Lep ob/ob mice in an amount of 150 mg/kg, 150 mg/kg of 0.1% SLS was administered to each of three C57BL/6J Lep ob/ob mice as controls, and experiments were performed for a total of one week. Weight increase ratios, weight change, and intake amounts depending on administration time were measured and results are illustrated in FIG. 5 below.
# as §1, with “that 10” for “that 15”, “Examples 8, 9,” for “Examples 5”, “and 12” for “and 6”, “FIG. 6” for “FIG. 5”
# Experiments were performed under the same conditions as in Experimental Example 3-1 except that 6 week-old C57BL/6J Lep ob/ob mice having genetic obesity characteristics available from ORIENTBIO were prepared, the compounds according to Examples 17, 18, 22, and 23 were administered to three C57BL/6J Lep ob/ob mice in an amount of 100 mg/kg, 100 mg/kg of 0.1% SLS was administered to each of three C57BL/6J Lep ob/ob mice as controls, and experiments were performed for a total of one week. Weight increase ratios, weight change, and intake amounts depending on administration time were measured and results are illustrated in FIG. 10 below. […]
# Cells = experiment: Measurement of lactate change amount within cells; format: cell-based; details: PCA extract of cells, lactate measured from supernatant (Megazyme, K-LATE)
# Procedure: Cells were treated with 400 μl of 6% PCA, and then collected and extracted. Centrifugation (13,000 rpm, 10 min) was performed. A precipitate was dried using a Speed-Vac and then a weight of dried precipitate was measured. A supernatant was neutralized using 400 μl of 1 M KOH and a final volume thereof was adjusted to 1 ml using 0.33 M KH2PO4/K2HPO4, pH 7.5. Centrifugation (13,000 rpm, 10 min) was performed and the amount of lactate was measured from a supernatant (Megazyme, K-LATE).
# NQO1 protein = NQO1 protein (Homo sapiens, UniProt P15559); experiment: NQO1 activity measurement (cytochrome C reduction); format: biochemical; details: 5 ng NQO1 protein, 200 μM NADH, 77 μM cytochrome C, 37° C., absorbance 550 nm for 10 minutes
# Sequence of NQO1 protein (P15559 whole entry, species assumed): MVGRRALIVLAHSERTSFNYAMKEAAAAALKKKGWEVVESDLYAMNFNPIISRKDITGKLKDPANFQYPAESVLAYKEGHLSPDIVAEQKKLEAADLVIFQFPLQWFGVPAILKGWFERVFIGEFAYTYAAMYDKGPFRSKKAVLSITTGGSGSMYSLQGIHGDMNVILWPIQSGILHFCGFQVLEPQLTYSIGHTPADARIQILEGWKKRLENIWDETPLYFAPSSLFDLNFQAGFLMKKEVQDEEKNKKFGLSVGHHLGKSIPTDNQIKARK
# [1] = Exp. Ex. 3-13, FIG. 16: 6 week-old ob/ob mice, 100 mg/kg oral, one week
# [2] = Exp. Ex. 3-11, FIG. 14: 6.5 week-old ob/ob mice, 100 mg/kg oral, one week
# [3] = Exp. Ex. 3-7, FIG. 10: 6 week-old ob/ob mice, 100 mg/kg oral, one week
# [4] = Exp. Ex. 3-12, FIG. 15: 6 week-old ob/ob mice, 100 mg/kg oral, two weeks
# [5] = Exp. Ex. 3-4, FIG. 4: 12 week-old ob/ob mice, 150 mg/kg oral, one week
# [6] = Exp. Ex. 3-5, FIG. 5: 15 week-old ob/ob mice, 150 mg/kg oral, one week
# [7] = Exp. Ex. 3-3, FIG. 3: 11 week-old ob/ob mice, 100 mg/kg oral, total of 6 days
# [8] = Exp. Ex. 3-10, FIG. 13: 6 week-old ob/ob mice, 100 mg/kg oral, two weeks
# [9] = Exp. Ex. 3-8, FIG. 11: 10 week-old ob/ob mice, 150 mg/kg oral, five days
# [10] = Exp. Ex. 3-6, FIG. 6: 10 week-old ob/ob mice, 150 mg/kg oral, one week
compound,measurement,setting,value
"CCc1nc2c([nH]1)C(=O)C(=O)c1cc(Cl)ccc1-2 [Example 45, 7-chloro-2-ethyl-3H-naphtho[2,1-d]imidazole-4,5-dione]",intake amount,C57BL/6J Lep ob/ob mice; [1],significantly decreased in some sections
same,weight change,C57BL/6J Lep ob/ob mice; [1],significantly decreased in some sections
same,weight increase ratio,C57BL/6J Lep ob/ob mice; [1],significantly decreased in some sections
same,Lactate change amount within cells (nmol/mg cell),Cells,5.7 nmol/mg cell
same,"NQO1 activity (5 μM, [nmol cytochrome C reduced/min/μg protein])",NQO1 protein,188.6 nmol cytochrome C reduced/min/μg protein
Cc1nc2c(n1C)C(=O)C(=O)c1ccccc1-2 [Example 96],intake amount,C57BL/6J Lep ob/ob mice; [2],significantly decreased in some sections
same,weight change,C57BL/6J Lep ob/ob mice; [2],significantly decreased in some sections
same,weight increase ratio,C57BL/6J Lep ob/ob mice; [2],significantly decreased in some sections
same,Lactate change amount within cells (nmol/mg cell),Cells,5.7 nmol/mg cell
same,"NQO1 activity (5 μM, [nmol cytochrome C reduced/min/μg protein])",NQO1 protein,21.4 nmol cytochrome C reduced/min/μg protein
CC(C)c1nc2c([nH]1)C(=O)C(=O)c1cc(N)ccc1-2 [Example 18],intake amount,C57BL/6J Lep ob/ob mice; [3],significantly decreased in some sections
same,weight change,C57BL/6J Lep ob/ob mice; [3],significantly decreased in some sections
same,weight increase ratio,C57BL/6J Lep ob/ob mice; [3],significantly decreased in some sections
same,Lactate change amount within cells (nmol/mg cell),Cells,6.6 nmol/mg cell
same,"NQO1 activity (5 μM, [nmol cytochrome C reduced/min/μg protein])",NQO1 protein,177.5 nmol cytochrome C reduced/min/μg protein
CC(C)c1nc2c(n1Cc1ccc(F)cc1)C(=O)C(=O)c1ccccc1-2 [Example 33],intake amount,C57BL/6J Lep ob/ob mice; [4],significantly decreased in some sections
same,weight change,C57BL/6J Lep ob/ob mice; [4],significantly decreased in some sections
same,weight increase ratio,C57BL/6J Lep ob/ob mice; [4],significantly decreased in some sections
same,Lactate change amount within cells (nmol/mg cell),Cells,4.7 nmol/mg cell
same,"NQO1 activity (5 μM, [nmol cytochrome C reduced/min/μg protein])",NQO1 protein,152.5 nmol cytochrome C reduced/min/μg protein
"CC(C)(C)c1nc2c([nH]1)C(=O)C(=O)c1ccccc1-2 [Example 5, 2-tert-butyl-3H-naphtho[2,1-d]imidazole-4,5-dione]",intake amount,C57BL/6J Lep ob/ob mice; [5],significantly decreased
same,weight change,C57BL/6J Lep ob/ob mice; [5],significantly decreased
same,weight increase ratio,C57BL/6J Lep ob/ob mice; [5],significantly decreased
same,intake amount,C57BL/6J Lep ob/ob mice; [6],significantly decreased
same,weight change,C57BL/6J Lep ob/ob mice; [6],significantly decreased
same,weight increase ratio,C57BL/6J Lep ob/ob mice; [6],significantly decreased
same,Lactate change amount within cells (nmol/mg cell),Cells,8.5 nmol/mg cell
same,"NQO1 activity (5 μM, [nmol cytochrome C reduced/min/μg protein])",NQO1 protein,153 nmol cytochrome C reduced/min/μg protein
"CCc1nc2c(n1C)C(=O)C(=O)c1ccccc1-2 [Example 38, 2-ethyl-3-methyl-3H-naphtho[2,1-d]imidazole-4,5-dione]",intake amount,C57BL/6J Lep ob/ob mice; [2],significantly decreased in some sections
same,weight change,C57BL/6J Lep ob/ob mice; [2],significantly decreased in some sections
same,weight increase ratio,C57BL/6J Lep ob/ob mice; [2],significantly decreased in some sections
same,Lactate change amount within cells (nmol/mg cell),Cells,5.2 nmol/mg cell
same,"NQO1 activity (5 μM, [nmol cytochrome C reduced/min/μg protein])",NQO1 protein,142.1 nmol cytochrome C reduced/min/μg protein
"O=C1C(=O)c2[nH]c(C3CCCCC3)nc2-c2ccccc21 [Example 6, 2-cyclohexyl-3H-naphtho[2,1-d]imidazole-4,5-dione]",intake amount,C57BL/6J Lep ob/ob mice; [6],significantly decreased
same,weight change,C57BL/6J Lep ob/ob mice; [6],significantly decreased
same,weight increase ratio,C57BL/6J Lep ob/ob mice; [6],significantly decreased
same,Lactate change amount within cells (nmol/mg cell),Cells,4.6 nmol/mg cell
same,"NQO1 activity (5 μM, [nmol cytochrome C reduced/min/μg protein])",NQO1 protein,253 nmol cytochrome C reduced/min/μg protein
"CC(C)c1nc2c(n1C)-c1ccccc1C(=O)C2=O [Example 3, 2-isopropyl-1-methyl-1H-naphtho[2,1-d]imidazole-4,5-dione]",intake amount,C57BL/6J Lep ob/ob mice; [7],significantly decreased
same,weight increase ratio,C57BL/6J Lep ob/ob mice; [7],significantly decreased
same,Lactate change amount within cells (nmol/mg cell),Cells,11.3 nmol/mg cell
same,"NQO1 activity (5 μM, [nmol cytochrome C reduced/min/μg protein])",NQO1 protein,139 nmol cytochrome C reduced/min/μg protein
CC(C)c1nc2c(n1C)C(=O)C(=O)c1ccccc1-2 [Example 35],intake amount,C57BL/6J Lep ob/ob mice; [8],significantly decreased in some sections
same,weight change,C57BL/6J Lep ob/ob mice; [8],significantly decreased in some sections
same,weight increase ratio,C57BL/6J Lep ob/ob mice; [8],significantly decreased in some sections
same,intake amount,C57BL/6J Lep ob/ob mice; [4],significantly decreased in some sections
same,weight change,C57BL/6J Lep ob/ob mice; [4],significantly decreased in some sections
same,weight increase ratio,C57BL/6J Lep ob/ob mice; [4],significantly decreased in some sections
same,Lactate change amount within cells (nmol/mg cell),Cells,8.1 nmol/mg cell
same,"NQO1 activity (5 μM, [nmol cytochrome C reduced/min/μg protein])",NQO1 protein,190.3 nmol cytochrome C reduced/min/μg protein
CCc1nc2c([nH]1)C(=O)C(=O)c1cc(F)ccc1-2 [Example 26],intake amount,C57BL/6J Lep ob/ob mice; [9],significantly decreased in some sections
same,weight change,C57BL/6J Lep ob/ob mice; [9],significantly decreased in some sections
same,weight increase ratio,C57BL/6J Lep ob/ob mice; [9],significantly decreased in some sections
same,Lactate change amount within cells (nmol/mg cell),Cells,5.7 nmol/mg cell
same,"NQO1 activity (5 μM, [nmol cytochrome C reduced/min/μg protein])",NQO1 protein,223.5 nmol cytochrome C reduced/min/μg protein
"CCc1nc2c(n1C)C(=O)C(=O)c1cc(F)ccc1-2 [Example 41, 2-ethyl-7-fluoro-3-methyl-3H-naphtho[2,1-d]imidazole-4,5-dione]",intake amount,C57BL/6J Lep ob/ob mice; [1],significantly decreased in some sections
same,weight change,C57BL/6J Lep ob/ob mice; [1],significantly decreased in some sections
same,weight increase ratio,C57BL/6J Lep ob/ob mice; [1],significantly decreased in some sections
same,Lactate change amount within cells (nmol/mg cell),Cells,7.2 nmol/mg cell
same,"NQO1 activity (5 μM, [nmol cytochrome C reduced/min/μg protein])",NQO1 protein,148.4 nmol cytochrome C reduced/min/μg protein
CCc1nc2c([nH]1)C(=O)C(=O)c1ccccc1-2 [Example 9],intake amount,C57BL/6J Lep ob/ob mice; [10],significantly decreased
same,weight change,C57BL/6J Lep ob/ob mice; [10],significantly decreased
same,weight increase ratio,C57BL/6J Lep ob/ob mice; [10],significantly decreased
same,Lactate change amount within cells (nmol/mg cell),Cells,8.0 nmol/mg cell
same,"NQO1 activity (5 μM, [nmol cytochrome C reduced/min/μg protein])",NQO1 protein,172 nmol cytochrome C reduced/min/μg protein
O=C1C(=O)c2[nH]c(C3CC3)nc2-c2ccccc21 [Example 12],intake amount,C57BL/6J Lep ob/ob mice; [10],significantly decreased
same,weight change,C57BL/6J Lep ob/ob mice; [10],significantly decreased
same,weight increase ratio,C57BL/6J Lep ob/ob mice; [10],significantly decreased
same,Lactate change amount within cells (nmol/mg cell),Cells,7.0 nmol/mg cell
same,"NQO1 activity (5 μM, [nmol cytochrome C reduced/min/μg protein])",NQO1 protein,184 nmol cytochrome C reduced/min/μg protein
